# Assay results as given in patent US11427615B2, “Peptide compound and application thereof, and composition containing peptide compound” (XDCEXPLORER (SHANGHAI) CO., LTD., priority 2017, dated 2022).
# Starred links: 1 amine or outer side, 2 acyl side, 3 side chain; linkers in the order of their positions; H or OH if unused. Non-standard residues stand in square brackets, D forms with d. Residues, ends and D or L forms follow the SMILES beside them. dPhe(2,4-Cl2) = N[C@H](Cc1ccc(Cl)cc1Cl)C(=O)O; Phe(4-F) = N[C@@H](Cc1ccc(F)cc1)C(=O)O; Pro(4,4-F2) = O=C(O)[C@@H]1CC(F)(F)CN1; dAla(2-furyl) = N[C@H](Cc1ccco1)C(=O)O; dPhe(4-F) = N[C@H](Cc1ccc(F)cc1)C(=O)O; Arg(Me) = CNC(=N)NCCC[C@H](N)C(=O)O; Hyp = O=C(O)[C@@H]1C[C@@H](O)CN1; azaPro = O=C(N1CCCN1[*:1])[*:2]; 2Thi = N[C@@H](Cc1cccs1)C(=O)O; NMeL = CN[C@@H](CC(C)C)C(=O)O; Pip = O=C(O)[C@@H]1CCCCN1; Ac6c = NC1(C(=O)O)CCCCC1; Aze = O=C(O)[C@@H]1CCN1; azaGly = NNC(=O)O; βAla = NCCC(=O)O
# Target: T1, human kiss1 receptor (GPR54) (Homo sapiens, UniProt Q969F8)
# T1 construct: host or cells: NFAT-bla CHO-K1 cells (Chinese hamster ovary), purchased recombinant cell line
# T1 sequence (Q969F8 whole entry): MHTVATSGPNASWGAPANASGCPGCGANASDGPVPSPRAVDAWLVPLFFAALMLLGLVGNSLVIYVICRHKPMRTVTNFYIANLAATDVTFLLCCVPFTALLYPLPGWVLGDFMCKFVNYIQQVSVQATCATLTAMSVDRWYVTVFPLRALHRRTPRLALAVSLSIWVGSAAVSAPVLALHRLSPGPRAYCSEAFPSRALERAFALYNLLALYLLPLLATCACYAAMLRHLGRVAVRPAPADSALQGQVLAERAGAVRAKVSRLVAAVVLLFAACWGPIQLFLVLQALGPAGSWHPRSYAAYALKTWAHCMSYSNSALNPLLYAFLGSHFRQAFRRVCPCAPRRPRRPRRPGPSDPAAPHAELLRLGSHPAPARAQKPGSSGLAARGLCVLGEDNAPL
# Assay: Kiss1 receptor (GPR54) binding activity of agonists, FRET detection in NFAT-bla CHO-K1 cells
# Assay type: cell-based
# Conditions: GPR54; measured according to the method of effect Embodiment 1; preliminary data; read-out: Preliminary measurement data (GPR54) EC50
row,Compound,EC50 [nM]
1,"CNC(=N)NCCC[C@H](NC(=O)[C@H](CC(C)C)NC(=O)NNC(=O)[C@H](Cc1ccccc1)NC(=O)[C@@H](NC(=O)[C@H](CC(N)=O)NC(=O)[C@@H](Cc1ccco1)NC(=O)[C@@H](Cc1ccc(O)cc1)NC(C)=O)[C@@H](C)O)C(=O)N[C@@H](Cc1c[nH]c2ccccc12)C(N)=O [YA-165, Ac-D-Tyr-(D-2Fua)-Asn-Thr-Phe-azaGly-Leu-Arg(Me)-Trp-NH2] (Ac-[dY][dAla(2-furyl)]NTF[azaGly]L[Arg(Me)]W-NH2)",0.025
2,CNC(=N)NCCC[C@H](NC(=O)[C@H](CC(C)C)NC(=O)NNC(=O)[C@H](Cc1ccccc1)NC(=O)[C@@H](Cc1ccco1)NC(=O)[C@H](CC(N)=O)NC(=O)[C@@H]1C[C@@H](O)CN1C(=O)[C@@H](Cc1ccc(O)cc1)NC(C)=O)C(=O)N[C@@H](Cc1c[nH]c2ccccc12)C(N)=O [YA-166] (Ac-[dY][Hyp]N[dAla(2-furyl)]F[azaGly]L[Arg(Me)]W-NH2),0.86
3,"CNC(=N)NCCC[C@H](NC(=O)[C@H](CC(C)C)NC(=O)[C@@H](Cc1ccco1)NC(=O)[C@H](Cc1ccccc1)NC(=O)[C@@H](NC(=O)[C@H](CC(N)=O)NC(=O)[C@@H]1C[C@@H](O)CN1C(=O)[C@@H](Cc1ccc(O)cc1)NC(C)=O)[C@@H](C)O)C(=O)N[C@@H](Cc1c[nH]c2ccccc12)C(N)=O [YA-168, Ac-D-Tyr-Hyp-Asn-Thr-Phe-(D-2Fua)-Leu-Arg(Me)-Trp-NH2] (Ac-[dY][Hyp]NTF[dAla(2-furyl)]L[Arg(Me)]W-NH2)",0.531
4,"CNC(=N)NCCC[C@H](NC(=O)[C@H](CC(C)C)NC(=O)NNC(=O)[C@H](Cc1ccccc1)NC(=O)[C@@H](NC(=O)[C@H](CC(N)=O)NC(=O)[C@@H]1C[C@@H](O)CN1C(=O)[C@@H](Cc1ccc(O)cc1)NC(C)=O)[C@@H](C)O)C(=O)N[C@H](Cc1ccco1)C(N)=O [YA-169, Ac-(D-Tyr)-Hyp-Asn-Thr-Phe-azaGly-Leu-Arg(Me)-[3-(2-furyl)-D-Ala]-NH2] (Ac-[dY][Hyp]NTF[azaGly]L[Arg(Me)][dAla(2-furyl)]-NH2)",6.53
5,"CNC(=N)NCCC[C@H](NC(=O)[C@H](CC(C)C)NC(=O)NNC(=O)[C@H](Cc1ccccc1)NC(=O)[C@@H](NC(=O)[C@H](CC(N)=O)NC(=O)[C@@H]1C[C@@H](O)CN1C(=O)[C@@H](Cc1ccc(F)cc1)NC(C)=O)[C@@H](C)O)C(=O)N[C@@H](Cc1c[nH]c2ccccc12)C(N)=O [YA-170, Ac-[D-Phe(4-F)]-Hyp-Asn-Thr-Phe-azaGly-Leu-Arg(Me)-Trp-NH2] (Ac-[dPhe(4-F)][Hyp]NTF[azaGly]L[Arg(Me)]W-NH2)",0.007
6,"CNC(=N)NCCC[C@H](NC(=O)[C@H](CC(C)C)NC(=O)NNC(=O)C1(NC(=O)[C@@H](NC(=O)[C@H](CC(N)=O)NC(=O)[C@@H]2C[C@@H](O)CN2C(=O)[C@@H](Cc2ccc(O)cc2)NC(C)=O)[C@@H](C)O)CCCCC1)C(=O)N[C@@H](Cc1c[nH]c2ccccc12)C(N)=O [YA-174, Ac-(D-Tyr)-Hyp-Asn-Thr-A6c-azaGly-Leu-Arg(Me)-Trp-NH2] (Ac-[dY][Hyp]NT[Ac6c][azaGly]L[Arg(Me)]W-NH2)",2.6
7,"CNC(=N)NCCC[C@H](NC(=O)[C@H](CC(C)C)NC(=O)NNC(=O)[C@H](Cc1ccccc1)NC(=O)[C@@H](NC(=O)[C@H](CC(N)=O)NC(=O)[C@H](Cc1cccs1)NC(=O)[C@@H](Cc1ccc(Cl)cc1Cl)NC(C)=O)[C@@H](C)O)C(=O)N[C@@H](Cc1c[nH]c2ccccc12)C(N)=O [YA-178, Ac-[D-Phe(2,4-DiCl)]-Thi-Asn-Thr-Phe-azaGly-Leu-Arg(Me)-Trp-NH2] (Ac-[dPhe(2,4-Cl2)][2Thi]NTF[azaGly]L[Arg(Me)]W-NH2)",0.011
8,"CNC(=N)NCCC[C@H](NC(=O)[C@H](CC(C)C)NC(=O)N1CCCN1C(=O)[C@H](Cc1ccccc1)NC(=O)[C@@H](NC(=O)[C@H](CC(N)=O)NC(=O)[C@@H]1C[C@@H](O)CN1C(=O)[C@@H](Cc1ccc(Cl)cc1Cl)NC(C)=O)[C@@H](C)O)C(=O)N[C@@H](Cc1c[nH]c2ccccc12)C(N)=O [YA-184, Ac-[D-Phe(2,4-DiCl)]-Hyp-Asn-Thr-Phe-azaPro-Leu-Arg(Me)-Trp-NH2] (Ac-[dPhe(2,4-Cl2)][Hyp]NTF[azaPro]L[Arg(Me)]W-NH2)",48
9,"CNC(=N)NCCC[C@H](NC(=O)[C@H](CC(C)C)N(C)C(=O)CCNC(=O)[C@H](Cc1ccccc1)NC(=O)[C@@H](NC(=O)[C@H](CC(N)=O)NC(=O)[C@@H]1CCCCN1C(=O)[C@@H](Cc1ccc(Cl)cc1Cl)NC(C)=O)[C@@H](C)O)C(=O)N[C@@H](Cc1c[nH]c2ccccc12)C(N)=O [YA-185, Ac-[D-Phe(2,4-DiCl)]-(S-Pip)-Asn-Thr-Phe-BetaAla-NMeLeu-Arg(Me)-Trp-NH2] (Ac-[dPhe(2,4-Cl2)][Pip]NTF[βAla][NMeL][Arg(Me)]W-NH2)",3.63
10,"CNC(=N)NCCC[C@H](NC(=O)[C@H](CC(C)C)N(C)C(=O)CCNC(=O)[C@H](Cc1ccccc1)NC(=O)[C@@H](NC(=O)[C@H](CC(N)=O)NC(=O)[C@@H]1CC(F)(F)CN1C(=O)[C@@H](Cc1ccco1)NC(C)=O)[C@@H](C)O)C(=O)N[C@@H](Cc1c[nH]c2ccccc12)C(N)=O [YA-186, Ac-[3-(2-Furyl)-D-Ala]-(DiFluorPro)-Asn-Thr-Phe-BetaAla-NMeLeu-Arg(Me)-Trp-NH2] (Ac-[dAla(2-furyl)][Pro(4,4-F2)]NTF[βAla][NMeL][Arg(Me)]W-NH2)",3.89
11,"CNC(=N)NCCC[C@H](NC(=O)[C@H](CC(C)C)N(C)C(=O)CCNC(=O)[C@H](Cc1ccccc1)NC(=O)[C@@H](NC(=O)[C@H](CC(N)=O)NC(=O)[C@@H]1C[C@@H](O)CN1C(=O)[C@@H](Cc1ccc(Cl)cc1Cl)NC(C)=O)[C@@H](C)O)C(=O)N[C@@H](Cc1c[nH]c2ccccc12)C(N)=O [YA-187, Ac-[D-Phe(2,4-DiCl)]-Hyp-Asn-Thr-Phe-BetaAla-NMeLeu-Arg(Me)-Trp-NH2] (Ac-[dPhe(2,4-Cl2)][Hyp]NTF[βAla][NMeL][Arg(Me)]W-NH2)",1.85
12,"CNC(=N)NCCC[C@H](NC(=O)[C@H](CC(C)C)NC(=O)[C@@H]1CCN1C(=O)[C@H](Cc1ccccc1)NC(=O)[C@@H](NC(=O)[C@H](CC(N)=O)NC(=O)[C@@H]1C[C@@H](O)CN1C(=O)[C@@H](Cc1ccc(Cl)cc1Cl)NC(C)=O)[C@@H](C)O)C(=O)N[C@@H](Cc1c[nH]c2ccccc12)C(N)=O [YA-188, Ac-[D-Phe(2,4-DiCl)]-Hyp-Asn-Thr-Phe-Aze-Leu-Arg(Me)-Trp-NH2] (Ac-[dPhe(2,4-Cl2)][Hyp]NTF[Aze]L[Arg(Me)]W-NH2)",0.477
13,"CNC(=N)NCCC[C@H](NC(=O)[C@H](CC(C)C)NC(=O)[C@@H]1CCN1C(=O)[C@H](Cc1ccccc1)NC(=O)[C@@H](NC(=O)[C@H](CC(N)=O)NC(=O)[C@@H]1C[C@@H](O)CN1C(=O)[C@@H](Cc1ccco1)NC(C)=O)[C@@H](C)O)C(=O)N[C@@H](Cc1c[nH]c2ccccc12)C(N)=O [YA-189, Ac-D-2Fua-Hyp-Asn-Thr-Phe-Aze-Leu-Arg(Me)-Trp-NH2] (Ac-[dAla(2-furyl)][Hyp]NTF[Aze]L[Arg(Me)]W-NH2)",1.7
14,"CNC(=N)NCCC[C@H](NC(=O)[C@H](CC(C)C)NC(=O)[C@@H]1CCN1C(=O)[C@H](Cc1ccccc1)NC(=O)[C@@H](NC(=O)[C@H](CC(N)=O)NC(=O)[C@@H]1C[C@@H](O)CN1C(=O)[C@H](Cc1ccc(F)cc1)NC(C)=O)[C@@H](C)O)C(=O)N[C@@H](Cc1c[nH]c2ccccc12)C(N)=O [YA-190, Ac-Phe(4-F)-Hyp-Asn-Thr-Phe-Aze-Leu-Arg(Me)-Trp-NH2] (Ac-[Phe(4-F)][Hyp]NTF[Aze]L[Arg(Me)]W-NH2)",3.89
15,"CNC(=N)NCCC[C@H](NC(=O)[C@H](CC(C)C)NC(=O)[C@@H]1CCN1C(=O)[C@H](Cc1ccccc1)NC(=O)[C@@H](NC(=O)[C@H](CC(N)=O)NC(=O)[C@H](Cc1cccs1)NC(=O)[C@@H](Cc1ccc(O)cc1)NC(C)=O)[C@@H](C)O)C(=O)N[C@@H](Cc1c[nH]c2ccccc12)C(N)=O [YA-191, Ac-D-Tyr-Thi-Asn-Thr-Phe-Aze-Leu-Arg(Me)-Trp-NH2] (Ac-[dY][2Thi]NTF[Aze]L[Arg(Me)]W-NH2)",0.521
16,"CNC(=N)NCCC[C@H](NC(=O)[C@H](CC(C)C)NC(=O)[C@@H]1CCN1C(=O)[C@H](Cc1ccccc1)NC(=O)[C@@H](NC(=O)[C@H](CC(N)=O)NC(=O)[C@@H]1CC(F)(F)CN1C(=O)[C@@H](Cc1ccc(O)cc1)NC(C)=O)[C@@H](C)O)C(=O)N[C@@H](Cc1c[nH]c2ccccc12)C(N)=O [YA-193, Ac-(D-Tyr)-Pro(diF)-Asn-Thr-Phe-Aze-Leu-Arg(Me)-Trp-NH2] (Ac-[dY][Pro(4,4-F2)]NTF[Aze]L[Arg(Me)]W-NH2)",1.36
17,"CNC(=N)NCCC[C@H](NC(=O)[C@H](CC(C)C)NC(=O)[C@@H]1CCN1C(=O)[C@H](Cc1ccccc1)NC(=O)[C@@H](NC(=O)[C@H](CC(N)=O)NC(=O)[C@@H]1CCCCN1C(=O)[C@@H](Cc1ccc(O)cc1)NC(C)=O)[C@@H](C)O)C(=O)N[C@@H](Cc1c[nH]c2ccccc12)C(N)=O [YA-194, Ac-D-Tyr-(S-Pip)-Asn-Thr-Phe-Aze-Leu-Arg(Me)-Trp-NH2] (Ac-[dY][Pip]NTF[Aze]L[Arg(Me)]W-NH2)",0.544
18,"CNC(=N)NCCC[C@H](NC(=O)[C@H](CC(C)C)NC(=O)C1(NC(=O)[C@H](Cc2ccccc2)NC(=O)[C@@H](NC(=O)[C@H](CC(N)=O)NC(=O)[C@@H]2C[C@@H](O)CN2C(=O)[C@@H](Cc2ccc(F)cc2)NC(C)=O)[C@@H](C)O)CCCCC1)C(=O)N[C@@H](Cc1c[nH]c2ccccc12)C(N)=O [YA-195, Ac-[D-Phe(4-F)]-Hyp-Asn-Thr-Phe-A6c-Leu-Arg(Me)-Trp-NH2] (Ac-[dPhe(4-F)][Hyp]NTF[Ac6c]L[Arg(Me)]W-NH2)",0.68
19,"CNC(=N)NCCC[C@H](NC(=O)[C@H](CC(C)C)NC(=O)C1(NC(=O)[C@H](Cc2ccccc2)NC(=O)[C@@H](NC(=O)[C@H](CC(N)=O)NC(=O)[C@@H]2C[C@@H](O)CN2C(=O)[C@@H](Cc2ccc(Cl)cc2Cl)NC(C)=O)[C@@H](C)O)CCCCC1)C(=O)N[C@@H](Cc1c[nH]c2ccccc12)C(N)=O [YA-196, Ac-[D-Phe(2,4-DiCl)]-Hyp-Asn-Thr-Phe-A6c-Leu-Arg (Me)-Trp-NH2] (Ac-[dPhe(2,4-Cl2)][Hyp]NTF[Ac6c]L[Arg(Me)]W-NH2)",0.48

# Same assay, conditions: NFAT-bla CHO-K1 cells that express human kiss1 receptor (GPR54); FRET; cells cultured with compound for 4 hours; read-out: GPR54 EC50/nM
row,Compound,EC50 [nM]
1,"CNC(=N)NCCC[C@H](NC(=O)[C@H](CC(C)C)NC(=O)[C@@H]1CCN1C(=O)[C@H](Cc1ccccc1)NC(=O)[C@@H](NC(=O)[C@H](CC(N)=O)NC(=O)[C@@H]1C[C@@H](O)CN1C(=O)[C@H](Cc1ccc(F)cc1)NC(C)=O)[C@@H](C)O)C(=O)N[C@@H](Cc1c[nH]c2ccccc12)C(N)=O [YA-190, Ac-Phe(4-F)-Hyp-Asn-Thr-Phe-Aze-Leu-Arg(Me)-Trp-NH2] (Ac-[Phe(4-F)][Hyp]NTF[Aze]L[Arg(Me)]W-NH2)",24.3
